Source: paper PMC3265130 (ACS Chemical Biology, 2011)
Residues, ends and D or L forms follow the SMILES beside them. *: point of attachment. 5FAM = O=C1OC2(c3ccc(O)cc3Oc3cc(O)ccc32)c2ccc(C(=O)*)cc21; Ahx = NCCCCCC(=O)O; X1 = CNCC*

Key:
53BP1 Tudor domain = 53BP1 Tudor domain (Homo sapiens, UniProt Q12888); experiment: Fluorescence polarization binding of 53BP1 Tudor domain to histone H4 peptides; conditions: FP; result in words; methyl-lysine analogue peptide, site H4K20me2
L3MBTL1 3xMBT = target: T1, L3MBTL1 3xMBT (Homo sapiens, UniProt Q9Y468); assay type: binding; conditions: site H4K20me1
T1 sequence (Q9Y468 197-526 isoform Q9Y468-1): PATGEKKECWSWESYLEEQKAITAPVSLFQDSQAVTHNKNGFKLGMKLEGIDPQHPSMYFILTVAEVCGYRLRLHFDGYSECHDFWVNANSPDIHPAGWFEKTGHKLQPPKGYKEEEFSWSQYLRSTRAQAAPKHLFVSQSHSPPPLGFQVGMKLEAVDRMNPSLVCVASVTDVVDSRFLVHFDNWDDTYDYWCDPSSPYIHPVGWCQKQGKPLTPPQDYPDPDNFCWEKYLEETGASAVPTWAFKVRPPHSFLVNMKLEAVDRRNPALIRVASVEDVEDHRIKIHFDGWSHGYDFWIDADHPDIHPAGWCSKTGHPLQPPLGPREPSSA

Chain of 53BP1 Tudor domain (Q12888 1484-1603): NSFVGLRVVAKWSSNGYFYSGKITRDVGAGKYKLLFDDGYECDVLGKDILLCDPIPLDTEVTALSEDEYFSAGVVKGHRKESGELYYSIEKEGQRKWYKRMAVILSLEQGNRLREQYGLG

Row | binding to the methyl-lysine analogue containing target (53BP1 Tudor domain) | ΔG(KCme) (L3MBTL1 3xMBT; FP, 25 °C, binding free energy, methyl-lysine analogue peptide) | ΔΔG(exp) (L3MBTL1 3xMBT; ΔG(KCme) – ΔG(Kme) from FP Kd) [kcal/mol] | Molecule
1 | no binding | – | – | fluoresceine-KGGAKRHRKC(me1)VLRDNIQ [Fl-H4(12–27)KC20me2]
2 | – | –24.6 ± 0.2 kJ/mol | 1.22 ± 0.072 | CC[C@H](C)[C@H](NC(=O)[C@H](CC(N)=O)NC(=O)[C@H](CC(=O)O)NC(=O)[C@H](CCCNC(=N)N)NC(=O)[C@H](CC(C)C)NC(=O)[C@@H](NC(=O)[C@H](CSCCNC)NC(=O)[C@H](CCCNC(=N)N)NC(=O)[C@H](Cc1c[nH]cn1)NC(=O)[C@H](CCCNC(=N)N)NC(=O)[C@H](CCCCN)NC(=O)[C@H](C)NC(=O)CNC(=O)CNC(=O)[C@H](CCCCN)NC(=O)CCCCCNC(=O)c1ccc2c(c1)C(=O)OC21c2ccc(O)cc2Oc2cc(O)ccc21)C(C)C)C(=O)N[C@@H](CCC(N)=O)C(N)=O [Fl-H4(12–27)KC20me1] ({5FAM-Ahx}-KGGAKRHRC(X1)VLRDNIQ-NH2)
